Molecules are shown by their SMILES.

In experiment [1] the target is T1, H₂-receptor (Cavia porcellus, UniProt P47747).
T1 construct: from tissue; host or cells: isolated guinea-pig atrial strip
Briefly: Test B: H₂-receptor antagonism in isolated guinea-pig atrium. The format is cell-based. Conditions: test compound 1 x 10⁻⁶ g/ml; histamine (1 x 10⁻⁶ g/ml)-induced increase in beating rate, before and 30 minutes after dosing. Here is the method: Test B (H₂-receptor antagonism in isolated guinea-pig atrium):
The atrial strip isolated from guinea-pig was suspended under an initial tension 0.3 to 0.6 g in an organ bath containing Tyrode solution at 30°C, aerated 95%O₂-5%CO₂ gas. The beating rate and amplitude of contraction of the atrium were recorded by means of a transducer and a polygraph. Histamine (1 x 10⁻⁶ g/ml) was added to the bathing fluid and the increase in beating rate after dosing was measured. Addition of test compounds (1 x 10⁻⁶ g/ml) was made 30 minutes after washing out histamine. Inhibitory effect of test compound was calculated by comparing histamine-induced increases in beating rate before and 30 minutes after dosing with the test compounds.

In experiment [2] the test system is lumen perfused stomach in anesthetized rats. Briefly: Test D: Gastric secretion from lumen perfused stomach in anesthetized rats (histamine-stimulated). The format is in vivo, Sprague-Dawley rats. Conditions: maximal inhibition of acid output; histamine 3 mg/kg/hr intravenous infusion; test compound 1 mg/kg intravenously. As to the method: Test D (Gastric secretion from lumen perfused stomach in anesthetized rats):
Male Sprague-Dawley rats weighing about 250 g were used. Rats were deprived of food but allowed free access to water for 24 hours. The animals were anesthetized with 1.25 g/kg urethane intraperitoneally. The abdomen was opened and the gastric lumen was perfused with saline throughout the experiment. The perfusate was titrated by an autotitrator with 25 mM sodium hydroxide as a titrant. Gastric secretion was stimulated by intravenous infusion with histamine (3 mg/kg/hr). After reaching plateau, test compound (1 mg/kg) was given intravenously. Drug effect was expressed as maximal inhibition by acid output.

The subject of experiment [3] is male Sprague-Dawley rats. Briefly: Test C: Inhibition of stress ulcer (restraint and water immersion). The class given is in vivo. Conditions: mean area of ulcers vs control animals; test compound 32 mg/kg orally; seven hours immobilized in water bath at 22°C. As to the method: Test C (Inhibition of stress ulcer):
Five male Sprague-Dawley rats, aged 7 weeks and weighing about 200 g were used per group for the study on stress ulcer after the fast for 24 hours. Each animal was immobilized in a restrain cage and immersed to a level of the xiphoid in a water bath kept 22°C. Each of the test compounds (32 mg/kg) suspended in 0.1% methylcellulose solution was administered orally just before the immobilization. Seven hours later, the animals were sacrificed and their stomachs were removed. The stomach was then fixed with 2% formalin. The area of ulcers was measured for each animal, and percentage of inhibition was calculated by comparing the mean area of ulcers (mm²) in the test animals with that in the control animals.

T1 sequence (P47747 whole entry): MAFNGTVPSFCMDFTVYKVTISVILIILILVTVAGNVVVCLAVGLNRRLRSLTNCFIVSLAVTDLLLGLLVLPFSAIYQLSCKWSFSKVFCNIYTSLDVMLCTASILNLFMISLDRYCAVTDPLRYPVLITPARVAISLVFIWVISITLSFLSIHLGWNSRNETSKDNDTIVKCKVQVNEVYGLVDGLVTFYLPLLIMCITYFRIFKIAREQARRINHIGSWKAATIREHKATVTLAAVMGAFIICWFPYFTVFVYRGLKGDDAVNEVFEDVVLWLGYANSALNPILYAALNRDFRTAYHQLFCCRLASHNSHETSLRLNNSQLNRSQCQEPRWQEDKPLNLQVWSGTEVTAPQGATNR

For `CNC(=O)NCc1ccc(-c2csc(N=C(N)N)n2)o1` [Test Compound (c)], in experiment [1], the “H₂ Antagonism (%)” value stood at 89.1%.
As to `CNC(=NC#N)NCc1ccc(-c2csc(N=C(N)N)n2)o1` [Test Compound (b), 4-[5-(2-Cyano-3-methylguanidino)methylfuran-2-yl]-2-(diaminomethyleneamino)thiazole], the “H₂ Antagonism (%)” value in experiment [1] worked out at 90.7%.
On to `NC(N)=Nc1nc(-c2ccc(CC(N)=NS(N)(=O)=O)o2)cs1` [Test Compound (d), 4-[5-(2-Amino-2-aminosulfonyliminoethyl)furan-2-yl]-2-(diaminomethyleneamino)thiazole], for which the “Inhibition (%)” value came out at 99% in experiment [2] and 86.6% in experiment [3].

The values above are taken from patent publication EP0355612B1, “Furylthiazole derivatives, processes for the preparation thereof and pharmaceutical composition comprising the same” (FUJISAWA PHARMACEUTICAL CO., LTD., priority 1988, dated 1990).
